Laboratory results published in paper PMC8037182, “Solvothermal Synthesis of Multiple Dihydropyrimidinones at a Time as Inhibitors of Eg5” (Molecules, 2021).

Key:
Hela cell line = test: Cytotoxicity MTS assay, Hela cell line; format: cell-based; conditions: for OD490 value, Mean / OD490 value, Well 1 / OD490 value, Well 2 / OD490 value, Well 3: Hela cell line, MTS;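 as to OD490 value, Mean: blank control wells received 0.025% DMSO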;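 as to OD490 value, Well 1: blank control wells received 0.025% DMSO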;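 as to OD490 value, Well 2: blank control wells received 0.025% DMSO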;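 as to OD490 value, Well 3: blank control wells received 0.025% DMSO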
In short: (§1)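 IC50 reflects non-linear regression of percent cell viability on compound concentration, tested from 0.5 to 100 µM final during a 24 h exposure. Viability was read by MTS at 490 nm; monastrol served as positive control and 0.025% DMSO as blank.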

T24 cell line = test: Cytotoxicity MTS assay, T24 cell line; format: cell-based; conditions: for OD490 Mean / OD490 Well 1 / OD490 Well 2 / OD490 Well 3: T24 cell line, first assay;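 as to OD490 Mean: blank control wells received 0.025% DMSO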;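 as to OD490 Well 1: blank control wells received 0.025% DMSO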;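 as to OD490 Well 2: blank control wells received 0.025% DMSO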;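 as to OD490 Well 3: blank control wells received 0.025% DMSO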
In short: as §1

CCOC(=O)c1[nH]c(C2NC(=S)NC(C)=C2C(=O)OC)c(C(=O)OCC)c1C (centres unmarked) [D12]
OD490 value, Mean (Hela cell line; 0.5μM, first assay): 2.4447 | OD490 value, Well 1 (Hela cell line; 0.5μM, first assay): 2.5235 | OD490 value, Well 2 (Hela cell line; 0.5μM, first assay): 2.4821 | OD490 value, Well 3 (Hela cell line; 0.5μM, first assay): 2.3285 | OD490 value, Mean (Hela cell line; 0.5μM, second assay): 2.5426 | OD490 value, Well 1 (Hela cell line; 0.5μM, second assay): 2.5366 | OD490 value, Well 2 (Hela cell line; 0.5μM, second assay): 2.2547 | OD490 value, Well 3 (Hela cell line; 0.5μM, second assay): 2.8365 | OD490 value, Mean (Hela cell line; 0.5μM, third assay): 2.6167 | OD490 value, Well 1 (Hela cell line; 0.5μM, third assay): 2.6535 | OD490 value, Well 2 (Hela cell line; 0.5μM, third assay): 2.5478 | OD490 value, Well 3 (Hela cell line; 0.5μM, third assay): 2.6489 | OD490 value, Mean (Hela cell line; 1μM, first assay): 2.3871 | OD490 value, Well 1 (Hela cell line; 1μM, first assay): 2.4815 | OD490 value, Well 2 (Hela cell line; 1μM, first assay): 2.2707 | OD490 value, Well 3 (Hela cell line; 1μM, first assay): 2.4090 | OD490 value, Mean (Hela cell line; 1μM, second assay): 2.5625 | OD490 value, Well 1 (Hela cell line; 1μM, second assay): 2.5302 | OD490 value, Well 2 (Hela cell line; 1μM, second assay): 2.5698 | OD490 value, Well 3 (Hela cell line; 1μM, second assay): 2.5874 | OD490 value, Mean (Hela cell line; 1μM, third assay): 2.6475 | OD490 value, Well 1 (Hela cell line; 1μM, third assay): 2.5896 | OD490 value, Well 2 (Hela cell line; 1μM, third assay): 2.6985 | OD490 value, Well 3 (Hela cell line; 1μM, third assay): 2.6543 | OD490 value, Mean (Hela cell line; 10μM, first assay): 2.6552 | OD490 value, Well 1 (Hela cell line; 10μM, first assay): 2.5708 | OD490 value, Well 2 (Hela cell line; 10μM, first assay): 2.6029 | OD490 value, Well 3 (Hela cell line; 10μM, first assay): 2.7920 | OD490 value, Mean (Hela cell line; 10μM, second assay): 2.5779 | OD490 value, Well 1 (Hela cell line; 10μM, second assay): 2.5898 | OD490 value, Well 2 (Hela cell line; 10μM, second assay): 2.5741 | OD490 value, Well 3 (Hela cell line; 10μM, second assay): 2.5698 | OD490 value, Mean (Hela cell line; 10μM, third assay): 2.6011 | OD490 value, Well 1 (Hela cell line; 10μM, third assay): 2.5898 | OD490 value, Well 2 (Hela cell line; 10μM, third assay): 2.6635 | OD490 value, Well 3 (Hela cell line; 10μM, third assay): 2.5501 | OD490 value, Mean (Hela cell line; 25μM, first assay): 2.2305 | OD490 value, Well 1 (Hela cell line; 25μM, first assay): 2.2367 | OD490 value, Well 2 (Hela cell line; 25μM, first assay): 2.1978 | OD490 value, Well 3 (Hela cell line; 25μM, first assay): 2.2571 | OD490 value, Mean (Hela cell line; 25μM, second assay): 2.5197 | OD490 value, Well 1 (Hela cell line; 25μM, second assay): 2.5698 | OD490 value, Well 2 (Hela cell line; 25μM, second assay): 2.5525 | OD490 value, Well 3 (Hela cell line; 25μM, second assay): 2.4369 | OD490 value, Mean (Hela cell line; 25μM, third assay): 2.6373 | OD490 value, Well 1 (Hela cell line; 25μM, third assay): 2.6859 | OD490 value, Well 2 (Hela cell line; 25μM, third assay): 2.5363 | OD490 value, Well 3 (Hela cell line; 25μM, third assay): 2.6896 | OD490 value, Mean (Hela cell line; 50μM, first assay): 2.5183 | OD490 value, Well 1 (Hela cell line; 50μM, first assay): 2.3673 | OD490 value, Well 2 (Hela cell line; 50μM, first assay): 2.6584 | OD490 value, Well 3 (Hela cell line; 50μM, first assay): 2.5291 | OD490 value, Mean (Hela cell line; 50μM, second assay): 2.5474 | OD490 value, Well 1 (Hela cell line; 50μM, second assay): 2.4652 | OD490 value, Well 2 (Hela cell line; 50μM, second assay): 2.5569 | OD490 value, Well 3 (Hela cell line; 50μM, second assay): 2.6201 | OD490 value, Mean (Hela cell line; 50μM, third assay): 2.5184 | OD490 value, Well 1 (Hela cell line; 50μM, third assay): 2.4365 | OD490 value, Well 2 (Hela cell line; 50μM, third assay): 2.5532 | OD490 value, Well 3 (Hela cell line; 50μM, third assay): 2.5654 | OD490 value, Mean (Hela cell line; 100μM, first assay): 2.3367 | OD490 value, Well 1 (Hela cell line; 100μM, first assay): 2.4110 | OD490 value, Well 2 (Hela cell line; 100μM, first assay): 2.1799 | OD490 value, Well 3 (Hela cell line; 100μM, first assay): 2.4192 | OD490 value, Mean (Hela cell line; 100μM, second assay): 2.4086 | OD490 value, Well 1 (Hela cell line; 100μM, second assay): 2.3674 | OD490 value, Well 2 (Hela cell line; 100μM, second assay): 2.4214 | OD490 value, Well 3 (Hela cell line; 100μM, second assay): 2.4369 | OD490 value, Mean (Hela cell line; 100μM, third assay): 2.3047 | OD490 value, Well 1 (Hela cell line; 100μM, third assay): 2.1753 | OD490 value, Well 2 (Hela cell line; 100μM, third assay): 2.3324 | OD490 value, Well 3 (Hela cell line; 100μM, third assay): 2.4065 | IC50 (Hela cell line; MTS assay, 24 h exposure): > 150 µM | IC50 (T24 cell line; MTS assay, 24 h exposure): > 150 µM | OD490 Mean (T24 cell line; 0.5μM): 1.1142 | OD490 Well 1 (T24 cell line; 0.5μM): 1.0855 | OD490 Well 2 (T24 cell line; 0.5μM): 0.8354 | OD490 Well 3 (T24 cell line; 0.5μM): 1.4216 | OD490 Mean (T24 cell line; 1μM): 1.1490 | OD490 Well 1 (T24 cell line; 1μM): 1.1324 | OD490 Well 2 (T24 cell line; 1μM): 1.1847 | OD490 Well 3 (T24 cell line; 1μM): 1.1298 | OD490 Mean (T24 cell line; 10μM): 1.2900 | OD490 Well 1 (T24 cell line; 10μM): 1.3295 | OD490 Well 2 (T24 cell line; 10μM): 1.2196 | OD490 Well 3 (T24 cell line; 10μM): 1.3210 | OD490 Mean (T24 cell line; 25μM): 1.3787 | OD490 Well 1 (T24 cell line; 25μM): 1.3758 | OD490 Well 2 (T24 cell line; 25μM): 1.4030 | OD490 Well 3 (T24 cell line; 25μM): 1.3572 | OD490 Mean (T24 cell line; 50μM): 1.3058 | OD490 Well 1 (T24 cell line; 50μM): 1.3832 | OD490 Well 2 (T24 cell line; 50μM): 1.3204 | OD490 Well 3 (T24 cell line; 50μM): 1.2137 | OD490 Mean (T24 cell line; 100μM): 1.2394 | OD490 Well 1 (T24 cell line; 100μM): 1.3664 | OD490 Well 2 (T24 cell line; 100μM): 1.1849 | OD490 Well 3 (T24 cell line; 100μM): 1.1670
